Test results: patent US20100291034A1, “COMBINATIONS OF HCV PROTEASE INHIBITOR(S) AND CYP3A4 INHIBITOR(S), AND METHODS OF TREATMENT RELATED THERETO” (Schering Corporation, priority 2006, published 2010)
Read-outs that look alike come from different tables or passages of the source.

Tests used:
HCV [1] = assay: EC90 of Formula XIVa used as plasma concentration threshold; conditions: Hepatitis C virus
human liver cytosol = assay: Incubation of compound Formula Ia or Formula XXVII in human liver cytosol with AKR inhibitor or CYP3A4 inhibitor (formation of M+2 metabolite, LC-MS); assay type: in vitro ADME
Procedure: Prior to the addition of drug, the incubation mixture was preincubated for 2 min at 37° C. […] Human liver microsomes and cytosol without NADPH served as negative controls. Parallel incubations with the compound of Formula Ia were used as positive controls. […] All incubations were performed as described previously for human liver cytosols. […] Parallel incubations with the compound of Formula Ia were used as positive controls.

[2] = Clinical study: pharmacokinetics of Formula Ia administered in combination with ritonavir; assay type: in vivo, human
Procedure: This study was an open-label, randomized, 2-period fixed-sequence, multiple-dose study (FIG. 4). The safety of coadministration of Formula Ia and ritonavir, as well as the quantitation of the ability of ritonavir to enhance Formula Ia PK parameters (specifically trough concentration values) in healthy human subjects was explored. A dose of 400 mg TID of Formula Ia coadministered with ritonavir was selected, as we have substantial safety and PK data available with Formula Ia administered alone at 400 mg TID and 800 TID for comparison. The dose selected of ritonavir was at a level to inhibit CYP3A4 and below the therapeutic dose for HIV. […] In this study, the effect of ritonavir on Formula Ia was examined as a low dose (100 mg) at two different dosing frequencies (i.e., once in the morning (QAM) and twice a day (BID)), which are commonly administered in HIV therapy. Based upon the findings of these regimens, subsequent regimens may be explored, with modification of the Formula Ia and/or ritonavir component(s). Human subjects received Formula Ia alone for 5 days in order to achieve steady-state. Human subjects were then randomized to receive one of two treatment regimens in which ritonavir was coadministered with Formula Ia (Formula Ia for 10 days, ritonavir administered for 12 days). Steady-state PK samples for Formula Ia were collected on Day 5 (Formula Ia alone), and on Day 15 (Formula Ia+ritonavir) and the PK parameters (primarily trough concentrations values) compared. […] In Period 1, all 16 human subjects received Treatment A and in Period 2 human subjects were randomized to either Treatment B or Treatment C (8 human subjects/treatment). […] Treatment A: Formula Ia 400 mg TID, every 8 hours) (Q8° following a meal or snack. Period 2 (Days 6 to 17): Treatment B: Formula Ia 400 mg TID (Q8°, Days 6 to 15), ritonavir 100 mg QAM (Days 6 to 17), following a meal or snack; Treatment C: Formula Ia 400 mg BID, every 12 hours ([…]°), (Days 6 to 15), ritonavir 100 mg BID, […]° (Days 6 to 17), following a meal or snack. Formula Ia (2×200 mg 3% SLS containing capsules), PO, TID, following a meal or snack. Formula Ia (2×200 mg 3% SLS containing capsules), PO, BID, following a meal or snack. Ritonavir (1×100 mg capsules), PO, QAM, following a meal or snack. Ritonavir (1×100 mg capsules), PO, BID, following a meal or snack. The trough levels after multiple-dosing of Formula Ia alone (Day 5) and after multiple-dosing of Formula Ia in combination with ritonavir (Day 15) were compared. […] AUC, Cmax, Cmin, and Tmax. […] The primary pharmacokinetic parameter is Cmin. The secondary parameters are Cmax and AUC. The log transformed pharmacokinetic parameters including Cmin, AUC, and Cmax were statistically analyzed using ANOVA model extracting effects due to treatment and human subject. […] The corresponding 90% confidence intervals were also provided. There is no intention to compare Treatments B and C to each other. • Treatment A: Formula Ia 400 mg TID (Q8°) following a meal or snack. Period 2 (Days 6 to 17). • Treatment B: Formula Ia 400 mg TID (Q8°, Days 6 to 15), ritonavir 100 mg QAM (Days 6 to 17) following a meal or snack. • Treatment C: Formula Ia 400 mg BID ([…]° Days 6 to 15), ritonavir 100 mg BID ([…]°, Days 6 to 17) following a meal or snack.

[3] = Exposure multiple of Formula Ia, most sensitive animal species versus humans; assay type: in vivo; conditions: most sensitive animal species compared with mean exposure in humans receiving 400 mg TID
[4] = Clinical study: effect of ketoconazole or ibuprofen on the pharmacokinetics of Formula Ia; assay type: in vivo, human; conditions: for AUC / half-life: human, plasma, po, 400 mg
Procedure: The study was conducted in an open-label, randomized, 3-period, 2-sequence crossover manner (FIG. 2). During Period 1, all 12 human subjects were administered a single 400 mg dose of Formula Ia. During Periods 2 and 3, human subjects received multiple doses of interacting drug, either ketoconazole (400 mg BID) or ibuprofen (600 mg TID) in a randomized sequence. The interacting drug was administered beginning on Day 1 (3 days prior to Formula Ia administration) and continued through Day 6. A single dose of Formula Ia was administered on Day 4 (2 hours after administration of the AM dose of interacting drug). Plasma samples for pharmacokinetic and metabolite analyses of Formula Ia was collected at predose (0 hour), 0.5, 1, 1.5, 2, 2.5, 3, 4, 5, 6, 7, 8, 9, 10, 12, 24, 36, 48, and 72 hour postdose for each period. (The 48 and 72 hour postdose samples for Period 1 was collected in an outpatient setting). In Periods 2 and 3, additional blood samples were collected immediately prior to dosing of the Formula Ia on Day 4 and two hours post ketoconazole/ibuprofen administration on Day 5 for determination of ketoconazole or ibuprofen concentration. • Treatment A: Formula Ia (4×100 mg capsules); single dose, P.O following an overnight fast, administered on Day 1 or Period 1. • Treatment B: Ketoconazole 400 mg; PO, administered BID from Day 1 to Day 6, Formula Ia (4×100 mg capsules); single dose, PO following an overnight fast, administered on Day 4 (2 hours after the AM ketoconazole dose). • Treatment C: Ibuprofen 600 mg; PO, TID from Day 1 to Day 6 Formula Ia (4×100 mg capsules); single dose, PO following an overnight fast, administered on Day 4 (2 hours after the AM ibuprofen dose).
Human subjects received a single dose of Formula Ia on Day 1 of Period 1. In Period 2 and Period 3, human subjects were treated for 6 days with either ketoconazole or ibuprofen and received a single dose of Formula Ia on Day 4 of each period. There were at least 7 days between administration of Formula Ia in Period 1 and Period 2 and at least 14 days between administration of Formula Ia in Period 2 and 3.
The proportion of human subjects with plasma concentrations above the in vitro IC50 and IC90 for the HCV replicon at each time point was determined. This plasma concentration data was used to estimate the following primary pharmacokinetic variables for the determination of bioavailability comparisons: • AUC(tf)—Area under the plasma concentration-time curve from Time 0 […]. • Cmax—Maximum observed plasma concentration. • Tmax—Time to maximum observed plasma concentration. • t½—Terminal phase half-life.

[5] = Exposure to Formula Ia when coadministered with food; assay type: in vivo
[6] = in vivo; cited from earlier work
HCV [7] = conditions: HCV positive patients, Nelson et al. 2003; cited from earlier work
[8] = Mean (% CV), plasma Formula Ia, single 400 mg dose PO, human subjects
[9] = co-administering ketoconazole with Formula Ia

Molecule: CCCCC(NC(=O)[C@@H]1[C@@H]2[C@H](CN1C(=O)[C@@H](NC(=O)NC1(CS(=O)(=O)C(C)(C)C)CCCCC1)C(C)(C)C)C2(C)C)C(=O)C(=O)NC1CC1 (some centres unmarked) [Formula XIVa]
- EC90 (HCV [1]): 0.03 µg/mL

Molecule: CC(C)(C)NC(=O)N[C@H](C(=O)N1CC2C([C@H]1C(=O)NC(CC1CCC1)C(=O)C(N)=O)C2(C)C)C(C)(C)C (some centres unmarked) [Formula Ia]
- 1ST PARENT PEAK AREA (human liver cytosol; HL Cytosol w/ NADPH + 2 uM Ritonavir): 3.81E+07
- 1ST PARENT PEAK AREA (human liver cytosol; HL Cytosol w/ NADPH + 50 uM Mefenamic acid): 6.19E+07
- 1ST PARENT PEAK AREA (human liver cytosol; HL Cytosol w/ NADPH + 100 uM Flufenamic acid): 6.33E+07
- 1ST PARENT PEAK AREA (human liver cytosol; HL Cytosol w/ NADPH + 100 uM Phenolphthalein): 6.23E+07
- 1ST PARENT PEAK AREA (human liver cytosol; HL Cytosol w/ NADPH + 200 uM Diflunisal): 6.10E+07
- 1ST PARENT PEAK AREA (human liver cytosol; HL Cytosol w/ NADPH Vehicle Control): 3.95E+07
- 1ST PARENT PEAK AREA (human liver cytosol; HL Cytosol w/o NADPH, 20 μM substrate, 60 min, 37° C.): 7.41E+07
- C8 ([2]; Mean PK (% CV), Formula Ia TID (400 mg) alone, Day 5): 104 (31)
- effect on the PK parameters examined ([2]; coadministration with 100 mg ritonavir QD or BID compared to monotherapy of Formula Ia alone): no effect
- Tmax ([2]; human, plasma, oral, Mean PK (% CV), Formula Ia TID (400 mg) alone, Day 5): 2.13 h
- AUC ([2]; human, plasma, oral, Mean PK (% CV), Formula Ia TID (400 mg) alone, Day 5, read-out: AUC8): 4120 ng·h/mL
- Cmax ([2]; plasma, oral, Mean PK (% CV), Formula Ia TID (400 mg) alone, Day 5, with food, healthy human subjects): 1360 ng/mL
- exposure multiple [3]: ≥ 4 fold
- Cmax ([4]; Mean (% CV), plasma Formula Ia, single 400 mg dose PO, fasted human subjects, alone or with ketoconazole 400 mg BID or ibuprofen 600 mg TID): 571 ng/mL
- AUC(0-t) [4, 8]: 2000 ng·h/mL
- C8 [4, 8]: 48.0 (38)
- MRT [4, 8]: 6.57 h
- increase in Cmax (average) [4, 9]: 40%
- increase of overall exposure (AUC) [4, 9]: more than 2 fold
- increase of trough concentration (C8) [4, 9]: approximately 3 fold
- increase in the bioavailability of Formula Ia ([4]; coadministration of ketoconazole compared to monotherapy of Formula Ia alone): 2 fold
- mean residence time (MRT) and effective half-life ([4]; effect of ketoconazole): increased
- AUC ([4]; Mean (% CV), plasma Formula Ia, single 400 mg dose PO, human subjects, read-out: AUC(l)): 2070 ng·h/mL
- AUC ([4]; Mean (% CV), plasma Formula Ia, single 400 mg dose PO, human subjects, read-out: AUCall): 2040 ng·h/mL
- half-life ([4]; Mean (% CV), plasma Formula Ia, single 400 mg dose PO, human subjects, read-out: t½ (converted)): 9.11 h
- half-life ([4]; Mean (% CV), plasma Formula Ia, single 400 mg dose PO, human subjects, read-out: t½ eff (converted)): 3.3 h
- Tmax ([4]; median, plasma Formula Ia, single 400 mg dose PO, human subjects): 1.75 h
- exposure [5]: increases

Molecule: CC(C)c1nc(CN(C)C(=O)N[C@H](C(=O)N[C@@H](Cc2ccccc2)C[C@H](O)[C@H](Cc2ccccc2)NC(=O)OCc2cncs2)C(C)C)cs1 [ritonavir]
- half life [6]: 3 to 5 h

B1: recombinant human IL-10: recombinant human IL-10 given to HCV positive patients in a Phase II clinical study (protein)
chain: SPGQGTQSENSCTHFPGNLPNMLRDLRDAFSRVKTFFQMKDQLDNLLLKESLLEDFKGYLGCQALSEMIQFYLEEVMPQAENQDPDIKAHVNSLGENLKTLRLRLRRCHRFLPCENKSKAVEQVKNAFNKLQEKGIYKAMSEFDIFINYIEAYMTMKIRN
- hepatic fibrosis (HCV [7]): decrease
- viral load (HCV [7]): increase
